Several values for one entry are separate records, joined by “and”; a condition that tells them apart may be missing. Equal values may be shown once. Inconclusive results and toxic doses are left out. Rule for the calls: active = survival T/C of 150% or more; inactive = T/C below 125% in these data.
Test system: CD2F1 mice, L1210 leukemia ip, survival T/C
Experiment: NCI In Vivo Anticancer Drug Screen. Data for tumor model L1210 Leukemia (intraperitoneal) in CD2F1 (CDF1) mice
Settings: endpoint: mean survival time, higher = longer survival
Procedure, shortened: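 Ratio T/C, where T is the treated-group value and C the vehicle-dosed control value, from mice implanted with a transplantable tumor.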

[1] = dose: 100.0 mg/kg/injection, schedule: Q01DX009 (ip), vehicle: saline with Tween-80
[2] = dose: 200.0 mg/kg/injection, schedule: Q01DX009 (ip), vehicle: saline with Tween-80
[3] = dose: 25.0 mg/kg/injection, schedule: Q01DX009 (ip), vehicle: saline with Tween-80
[4] = dose: 50.0 mg/kg/injection, schedule: Q01DX009 (ip), vehicle: saline with Tween-80
[5] = dose: 50.0 mg/kg/injection, schedule: Q04DX003 (ip), vehicle: saline with Tween-80
[6] = dose: 100.0 mg/kg/injection, schedule: Q04DX003 (ip), vehicle: saline with Tween-80
[7] = dose: 100.0 mg/kg/injection, schedule: Q04DX003 (ip), vehicle: saline
[8] = dose: 200.0 mg/kg/injection, schedule: Q04DX003 (ip), vehicle: saline with Tween-80
[9] = dose: 200.0 mg/kg/injection, schedule: Q01DX001 (ip), vehicle: saline

Measured: T/C

C=C1C[C@@H](O)C[C@@]2(C)C[C@@H]3OC(=O)C(=C)[C@@H]3C[C@H]12
inactive: [1] 104 % of control | [2] 111 % of control

Cc1c(N)ccc(O)c1C
inactive: dose: 12.5 mg/kg/injection, schedule: Q01DX009 (ip), vehicle: saline with Tween-80 98 % of control | [3] 97 % of control | [4] 92 % of control

O=S(=O)(Cl)C(Cl)(Cl)Cl
inactive: [3] 96 % of control | [4] 102 % of control | [5] 97 % of control | [1] 95 % of control | [6] 94 % of control

OC(C1CCCCN1)C1CC(c2ccccc2)Nc2c(Cl)cc(Cl)cc21 (stereo not given)
inactive: [7] 97 % of control

C[C@]12CC[C@@H]3c4ccc(OC5CCCCO5)cc4CC[C@H]3[C@@H]1CC[C@@H]2O (stereo not given in full)
inactive: dose: 600.0 mg/kg/injection, schedule: Q01DX Z (ip), vehicle: steriod suspending solution 108 % of control | dose: 800.0 mg/kg/injection, schedule: Q01DX Z (ip), vehicle: steriod suspending solution 101 % of control

CCOC(=O)c1ccc(NC(=O)Oc2cc3ccccc3cc2C(=O)Nc2ccccc2)cc1
inactive: dose: 25.0 mg/kg/injection, schedule: Q01DX001 (ip), vehicle: saline with Tween-80 87 % of control | [3] 94 % of control and 96 % of control | dose: 25.0 mg/kg/injection, schedule: Q04DX002 (ip), vehicle: saline with Tween-80 97 % of control | dose: 25.0 mg/kg/injection, schedule: Q04DX003 (ip), vehicle: saline with Tween-80 96 % of control and 98 % of control | dose: 50.0 mg/kg/injection, schedule: Q01DX001 (ip), vehicle: saline with Tween-80 87 % of control | [4] 88 % of control and 92 % of control | dose: 50.0 mg/kg/injection, schedule: Q04DX002 (ip), vehicle: saline with Tween-80 88 % of control and 92 % of control | [5] 88 % of control and 92 % of control | dose: 100.0 mg/kg/injection, schedule: Q01DX001 (ip), vehicle: saline with Tween-80 87 % of control | [1] 91 % of control and 96 % of control | [6] 92 % of control | dose: 200.0 mg/kg/injection, schedule: Q04DX002 (ip), vehicle: saline with Tween-80 87 % of control | [8] 92 % of control and 93 % of control

CC(=O)OC1CCCC(OC(C)=O)C1OC(C)=O (stereo not given)
inactive: [7] 107 % of control | dose: 200.0 mg/kg/injection, schedule: Q04DX003 (ip), vehicle: saline 96 % of control | dose: 400.0 mg/kg/injection, schedule: Q04DX003 (ip), vehicle: saline 101 % of control

CCC[CH2][Sn]1([CH2]CCC)[O]C(=O)C2CC=CCC2C(=O)[O]1 (stereo not given)
inactive: dose: 100.0 mg/kg/injection, schedule: Q01DX001 (ip), vehicle: saline 102 % of control | [9] 104 % of control

CC1(C)SC(C(NC(=O)Cc2ccccc2)C(=O)O)NC1C(=O)O (stereo not given)
inactive: [6] 101 % of control | [8] 103 % of control | dose: 400.0 mg/kg/injection, schedule: Q04DX003 (ip), vehicle: saline with Tween-80 95 % of control

C[n+]1ccccc1CCc1cccc[n+]1C
inactive: dose: 50.0 mg/kg/injection, schedule: Q01DX009 (ip), vehicle: saline 100 % of control | dose: 100.0 mg/kg/injection, schedule: Q01DX009 (ip), vehicle: saline 100 % of control | dose: 200.0 mg/kg/injection, schedule: Q01DX009 (ip), vehicle: saline 104 % of control

CC(=O)[c-]1[c-][c-][c-][c-]1.[Fe+2].[c-]1[c-][c-][cH-][c-]1
inactive: [9] 102 % of control | dose: 400.0 mg/kg/injection, schedule: Q01DX001 (ip), vehicle: saline 100 % of control

Clc1ccc(N2CSCSC2)cc1
inactive: [4] 95 % of control | [1] 98 % of control | [2] 95 % of control

N#C/C(=C/c1ccccc1Cl)C(N)=O
inactive: dose: 100.0 mg/kg/injection, schedule: Q01DX001 (ip), vehicle: saline sonified 103 % of control | dose: 200.0 mg/kg/injection, schedule: Q01DX001 (ip), vehicle: saline sonified 100 % of control | dose: 400.0 mg/kg/injection, schedule: Q01DX001 (ip), vehicle: saline sonified 104 % of control

From PubChem BioAssay AID256 (DTP/NCI, 2004)
